Counter-ions that a name gives are not always drawn.
How the values were obtained:
Assay type in all cases: physicochemical
[1] = Release of free lidocaine from the PVA-acrylamide hydrogel (Example 2); conditions: in 8 hours; 3 g UV-crosslinked hydrogel in 5 ml buffer; UV at 263 nm
Experimental: (§1) The hydrogel matrix is the same as Example 1.
(§2) The vesicles are loaded with lidocaine HCl, via a phase transfer method from chloroform to water, and cleaned over a Sepharose column. The resulting vesicles formulation is mixed with the PVA-acrylamide macromer and Irgacure 2959.3 g of the hydrogel is crosslinked with UV and immersed in 5 ml buffer solution at pH 4. The 5 ml buffer is exchanged after 8-16 h with 5 ml buffer solution at 0.5 pH units higher and left for another 8-16 h. This is repeated until pH 6.5 is reached. About 80% of free lidocaine is released from the hydrogel in 8 hours. The lidocaine HCl release is measured with UV at 263 nm and compared to a standard curve.

[2] = Release from pH responsive vesicles in hydrogel (Example 2); conditions: poly(2-vinylpyridine-b-ethylene oxide) vesicles in hydrogel; buffer pH 4 to 6.5 in 0.5 pH steps
Description: The vesicles are made from the block copolymer poly(2-vinylpyridine-b-ethylene oxide) (NP2VP:29,NPEO: 15) This polymer can be made as described in Foerster et al., Langmuir, 2006, 22, 5843-5847.
as §1, §2

[3] = Release from temperature sensitive vesicles in hydrogel (Example 4); conditions: cooled from 40 C to room temperature, 10 ml water, 12 hours
Experimental: The vesicles are loaded with lidocaine HCl in a buffered solution at pH 6.5 above 40 C and cleaned over a Sepharose column. The resulting vesicles are mixed into 3 g of hydrogel at a solid content of 7% at 40 C. The hydrogel is cooled to room temperature and immersed in 10 ml of water. […] The release is measured with UV at 263 nm over 12 hours.

[4] = Release from vesicles crosslinked into the hydrogel (Example 5); conditions: buffer pH 6.5, 50 C for 24 hours or taken out of solution over night
Description: Vesicles are made from the block copolymer HO-poly(2-methyl-2-oxazoline)-b-polydimethylsiloxane-b-poly(2-methyl-2-oxazoline)-OH modified with isocyanto-ethylmetacrylate at the OH endgroups as taught in U.S. Pat. No. 5,807,944 to Hirt et al.
The hydrogel matrix is made as described in Example 1.
The vesicles are loaded with a hydrophilic lidocaine HCl and cleaned over a Sepharose column as taught above. The resulting vesicles formulation is mixed with the PVA-acrylamide macromer and Irgacure 2959.3 times 3 g of the hydrogel is crosslinked with UV and immersed in 10 ml buffer solution at pH 6.5 each. One sample is exposed to 50 C for 24 hours and left for another 24 hours. One sample is taken out of solution over night and put back into the buffer for 24 hours. Solutions are analyzed with UV for the lidocaine release and compared to the untreated solution.

[5] = Passive diffusion from vesicles and hydrogel matrix (Example 1); conditions: PMOXA-b-PDMS-b-PMOXA vesicles in PVA-acrylamide hydrogel; water
Experimental: Vesicles are made out of the block copolymer poly(2-methyl-2-oxazoline)-b-polydimethylsiloxane-b-poly(2-methyl-2-oxazoline). Molecular weights of the segments are poly(2-methyl-2-oxazoline): 1300, and PDMS segment: 4400. The copolymer is made as described in U.S. Pat. No. 5,807,944 to Hirt et al.
A total of 50 mg of polymer was dissolved in 250 μl of ethanol (99%). The ethanolic solution was slowly added to 5 ml of bi-distilled water containing 0.2 M carboxy-fluorescein. A minimum of 4 h of stirring was allowed. Subsequently, the vesicles were extruded through 0.45 μm and 0.22 μm filters (Millex Durapore-PVDF, Millipore) 6 times. This procedure ensures formation of unilamellar vesicles with diameters dictated by the pore size of the extrusion filters and with a more monodisperse size distribution. Chromatographic separation was achieved on a Sepharose 4B column (1×30 cm) eluted with bi-distilled water. The slightly hazy fraction contains the vesicles.
The hydrogel matrix is based on a PVA-acrylamide macromer and a UV-initiator as taught by U.S. Pat. No. 7,070,809 to Goupil et al., Example 5a. […]
3 g of the vehicle are immersed in 5 ml of water. The water is exchanged every hour for the first 8 hours and every 24 hours thereafter and the fluorescence of the supernatant is measured in order to calculate the amount of carboxy-fluorescein released from the vehicle.

| Compound | free lidocaine released from the hydrogel [1] | lidocaine HCl release out of the vesicles in response to a change in pH [2] | release of vesicle content at room temperature [3] | lidocaine release after shape change of the hydrogel [4] | passive release of active agent out of the vesicles and hydrogel matrix [5] |
| --- | --- | --- | --- | --- | --- |
| CCN(CC)CC(=O)Nc1c(C)cccc1C [lidocaine HCl] | About 80% | released slowly with increasing pH, with an increased rate after pH 5 | release their content slowly | ruptured the vesicles and their content is released |  |
| Carboxy-fluorescein |  |  |  |  | slowly diffuse out of the vesicles and then be released from the hydrogel |
